Here are results for 23 compounds from patent US9802942B2, “Substituted 4-methyl-pyrrolo[1,2-A]pyrimidine-8-carboxamide compounds and uses thereof for modulating glucocerebrosidase activity” (Northwestern University, priority 2015, dated 2017).

Read-outs that look alike come from different tables or passages of the source.

As a reminder, the AC50 is the concentration at which the activity in the assay is half-maximal.

Holding throughout (assay type): biochemical
Experiment [1] addresses T1, glucocerebrosidase (GCase), recombinant wt. enzyme velaglucerase alfa (Homo sapiens, UniProt P04062).
T1 construct: purchased Shire Human Genetic Therapies, Inc. Vpriv
T1 sequence (P04062 40-536): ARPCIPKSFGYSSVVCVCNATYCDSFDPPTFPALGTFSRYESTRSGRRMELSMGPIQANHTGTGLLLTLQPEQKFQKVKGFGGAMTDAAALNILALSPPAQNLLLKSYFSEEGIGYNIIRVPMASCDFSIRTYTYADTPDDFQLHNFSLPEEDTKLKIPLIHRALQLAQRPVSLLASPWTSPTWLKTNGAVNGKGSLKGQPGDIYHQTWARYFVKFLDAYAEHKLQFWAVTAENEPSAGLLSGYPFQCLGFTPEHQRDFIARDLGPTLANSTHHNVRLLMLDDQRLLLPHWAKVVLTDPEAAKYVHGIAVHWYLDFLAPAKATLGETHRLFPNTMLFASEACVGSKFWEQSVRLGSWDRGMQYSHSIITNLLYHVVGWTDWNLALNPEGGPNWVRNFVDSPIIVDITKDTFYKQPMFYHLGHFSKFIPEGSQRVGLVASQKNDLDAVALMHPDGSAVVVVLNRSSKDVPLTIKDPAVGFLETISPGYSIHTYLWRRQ
The experiment in a line: Glucocerebrosidase activity assay with red substrate (Res-β-glc). The following applies: red substrate enzyme activity assay. The procedure: The compounds in DMSO solution 0.5 μL/well were transferred to a black 96-well plate (the final titration was 24 nM to 50 μM, 12 concentrations, 2 times dilution). 33.5 μL enzyme solution (7.5 nM final concentration) was transferred to the wells. After 5 min of incubation at room temperature, the enzyme reaction was initiated by the addition of 33 μL/well blue substrate or 66.5 μL/well red substrate. Final concentrations of the blue substrate (4MU-Glc) and red substrate (Res-Glc) were 1.5 mM and 30 μM, respectively. The red substrate reaction was measured in the Biotek Synergy H1 multi-mode plate reader with Ex=573 nm and Em=610 nm at 37° C. every 20 sec for 30 min. The blue substrate reaction was terminated by the addition of 33 μL/well stop solution (1 M NaOH and 1 M glycine mixture, pH 10) after 30 min of incubation at 37° C. The fluorescence was then measured in the plate reader at Ex=365 nm and Em=440 nm. […]
The compounds in DMSO solution 0.5 μL/well was transferred to a black 96-well plate (the final titration was 24 nM to 50 μM, 12 concentrations). […] The red substrate reaction was measured in the Biotek Synergy H1 multi-mode plate reader with Ex=573 nm and Em=610 nm at 37° C. in every 20 seconds for 30 min. […] The fluorescence was then measured in the plate reader with Ex=365 nm and Em=440 nm.

Experiment [2] addresses T2, recombinant wild type GCase (Homo sapiens, UniProt P04062).
T2 construct: purchased Shire Human Genetic Therapies, Inc. Vpriv
T2 sequence (P04062 40-536): T1 sequence (P04062 40-536)
The experiment is described as follows: Covalent binding assay: activity of GCase activated by probe 4. To be noted: for enzyme activity comparing to the wt. GCase: covalent activation. The procedure: To the recombinant wild type enzyme (22 μM, 95 μL, 1 equiv) in 0.1 M phosphate buffer (pH 7.2) was added 2,5-dioxopyrrolidin-1-yl 3-(2-(2-(4-(4-(2,4-dimethylpyrrolo[1,2-a]pyrimidine-8-carboxamido)phenyl)-1H-1,2,3-triazol-1-yl)ethoxy)ethoxy)propanoate (4) in DMSO (0.89 mM, 5 μL, 2 equiv) in one portion, and was vortexed for 5 sec immediately. At indicated time points, the reaction solution (2 μL) was sampled and diluted (1:3125 dilution) into the assay buffer (50 mM citric acid, 176 mM K2HPO4, and 0.01% Tween-20 at pH 5.9). After 2 h the reaction solution was dialyzed three times with 0.1 M phosphate buffer (pH 7.2). The enzyme was adjusted to the same concentration and sampled for activity. The dilution solutions were assayed with three substrates, resorufin substrate, 4-MU substrate, and natural substrate using the method in Example 5 and Example 6 without adding compounds.
The probe 4 was subjected to the covalent binding assay against GCase. The reaction conditions, including the buffer pH value, the concentration of the protein and probe, and the reaction temperature were carefully adjusted to achieve the maximum activation. With the optimized reaction condition, the enzyme activity was activated in a time-dependent manner (FIG. 5). The enzyme could be activated by probe 4 with around 22 and 28 folds activity comparing to the wt. GCase in the 4MU-Glc substrate (FIG. 5A) and red substrate (FIG. 5B) enzyme activity assay respectively.

Experiment [3] has as its target T1, glucocerebrosidase (GCase), recombinant wt. enzyme velaglucerase alfa. The experiment is described as follows: Glucocerebrosidase activity assay with blue substrate (4MU-Glc). The procedure: The compounds in DMSO solution 0.5 μL/well were transferred to a black 96-well plate (the final titration was 24 nM to 50 μM, 12 concentrations, 2 times dilution). 33.5 μL enzyme solution (7.5 nM final concentration) was transferred to the wells. After 5 min of incubation at room temperature, the enzyme reaction was initiated by the addition of 33 μL/well blue substrate or 66.5 μL/well red substrate. Final concentrations of the blue substrate (4MU-Glc) and red substrate (Res-Glc) were 1.5 mM and 30 μM, respectively. The red substrate reaction was measured in the Biotek Synergy H1 multi-mode plate reader with Ex=573 nm and Em=610 nm at 37° C. every 20 sec for 30 min. The blue substrate reaction was terminated by the addition of 33 μL/well stop solution (1 M NaOH and 1 M glycine mixture, pH 10) after 30 min of incubation at 37° C. The fluorescence was then measured in the plate reader at Ex=365 nm and Em=440 nm.
The recombinant wt. enzyme velaglucerase alfa (Vpriv®, Shire Human Genetic Therapies, Inc.) was obtained from residual solution after clinical infusions. The GCase activity assay buffer was composed of 50 mM citric acid, 176 mM K2HPO4, and 0.01% Tween-20 at pH 5.9. A solution of 1 M sodium hydroxide and 1 M glycine was used as the stop solution for the 4MU-β-glc substrate assay.
The compounds in DMSO solution 0.5 μL/well was transferred to a black 96-well plate (the final titration was 24 nM to 50 μM, 12 concentrations). 33.5 μL enzyme solution (7.5 nM final concentration) was transferred to the wells. After 5 min of incubation at room temperature, the enzyme reaction was initiated by the addition of 33 μL/well 4MU-Glc substrate or 66.5 μL/well red substrate. Final concentrations of the 4MU-Glc substrate and Res-Glc substrate were 1.5 mM and 30 μM, respectively. The red substrate reaction was measured in the Biotek Synergy H1 multi-mode plate reader with Ex=573 nm and Em=610 nm at 37° C. in every 20 seconds for 30 min. The 4MU-Glc substrate reaction was terminated by the addition of 33 μL/well stop solution (1 M NaOH and 1 M glycine mixture, pH 10) after 30 min of incubation at 37° C. The fluorescence was then measured in the plate reader with Ex=365 nm and Em=440 nm.

The mark [4] stands for this setting: Table 1, titration 24 nM to 50 μM, substrate not given, read-out: Ac50.
Setting [5] is: Table 2, values marked activator, read-out: Activity AC50 or IC50.

As to `Cc1cc(C)n2ccc(C(=O)Nc3ccc(-c4cn(CCOCCOCCC(=O)ON5C(=O)CCC5=O)nn4)cc3)c2n1` [No. 2, 2,5-Dioxopyrrolidin-1-yl 3-(2-(2-(4-(4-(2,4-dimethylpyrrolo[1,2-a]pyrimidine-8-carboxamido)phenyl)-1H-1,2,3-triazol-1-yl)ethoxy)ethoxy)propanoate], the “activation activity, red substrate” value in experiment [1] was found to be 10 folds. Moreover, the “enzyme activity comparing to the wt. GCase” value is “around 22 folds” in experiment [2] (4MU-Glc substrate) and roughly 28 folds in experiment [2] (red substrate). Moreover, the “enzyme activity followed by dialysis” value in experiment [2] (three substrate assays, in words) is given as “not decreased significantly”. The “maximum activity / activation activity” value in experiment [3] (4MU-Glc substrate enzyme activity assay) is 20 folds. On to `CCc1nnc(NC(=O)c2ccn3c(C)cc(C)nc23)s1` [compound 44], for which the half-maximal activity concentration (AC50) in experiment [3] (setting [4]) stood at 22400 nM.

For the compound `Cc1cc(C)n2ccc(C(=O)NC3CCCCC3)c2n1` [compound 27], the AC50 in experiment [3] (setting [4]) was found to be 15800 nM. Regarding `Cc1cc(C)n2ccc(C(=O)Nc3ccc(CCN4CCCCC4)cc3)c2n1` [compound 15], the concentration at half-maximal activity (AC50) in experiment [3] (setting [4]) was 39800 nM. The same measure, in the same setting: the same measure for `Cc1cc(C)n2ccc(C(=O)Nc3nc4cc(Cl)ccc4s3)c2n1` [compound 41]: 39900 nM. Consider `Cc1cc(C)n2ccc(C(=O)Nc3ccc(-c4cn(CCOCCOCCC(=O)NC5CCC5)nn4)cc3)c2n1` [compound 70], for which the half-maximal activity concentration (AC50) in experiment [3] (setting [4]) was 3550 nM. Take `COC(=O)CCCCCCCCC#Cc1ccc(NC(=O)c2ccn3c(C)cc(C)nc23)cc1` [compound 74]: the “activator (word in Activity cell)” value in experiment [3] (Table 2) is on record as “activator”. In addition, the AC50 in experiment [3] (setting [5]) is 710 nM. For the compound `COc1ccc2nc(NC(=O)c3ccn4c(C)cc(C)nc34)sc2c1` [compound 47], the “Activator / Inhibitor (word in Ac50 cell)” value (“Activator / Inhibitor” below) in experiment [3] (Table 1) is reported as “Inhibitor”. In the case of `Cc1cc(C)n2ccc(C(=O)Nc3ccc(C#CCCCCCCCCC(=O)ON4C(=O)CCC4=O)cc3)c2n1` [compound 82], in experiment [3] (Table 2), the “activator (word in Activity cell)” value is “activator”. Besides, the AC50 in experiment [3] (setting [5]) stood at 800 nM. For `Cc1cc(C)n2ccc(C(=O)Nc3ccc(-c4cn(CCCCC(=O)ON5C(=O)CCC5=O)nn4)cc3)c2n1` [compound 60], the “Activator / Inhibitor” value in experiment [3] (Table 1) is listed as “Activator”. Besides, in experiment [3] (setting [4]), the AC50 is 630 nM. In the case of `Cc1cc(C)n2ccc(C(=O)Nc3ccc(Cc4ccccc4)cc3)c2n1` [compound 13], the AC50 in experiment [3] (setting [4]) stood at 790 nM. Consider `Cc1cc(C)n2ccc(C(=O)NC3CCc4ccccc43)c2n1` (centres unmarked) [compound 28], for which, in experiment [3] (setting [4]), the concentration at half-maximal activity (AC50) is 3980 nM. For the compound `Cc1cc(C)n2ccc(C(=O)Nc3ccc(I)cc3)c2n1` [compound 73], in experiment [3] (Table 2), the “activator (word in Activity cell)” value is “activator”. In addition, the concentration at half-maximal activity (AC50) in experiment [3] (setting [5]) worked out at 316 nM. On to `Cc1cc(C)n2ccc(C(=O)NC3Cc4ccccc4C3)c2n1` [compound 29], for which the AC50 in experiment [3] (setting [4]) is 2510 nM. In the case of `Cc1cc(C)n2ccc(C(=O)Nc3ccc(C#Cc4ccccc4)cc3)c2n1` [compound 38], the AC50 in experiment [3] (setting [4]) came to 790 nM. The same measure, in the same setting: the result for `Cc1cc(C)n2ccc(C(=O)Nc3ccc(-c4cn(CCOCCOCCC(=O)NCCN5CCOCC5)nn4)cc3)c2n1` [compound 67] reads 8910 nM; that for `Cc1ccc2nc(NC(=O)c3ccn4c(C)cc(C)nc34)sc2c1` [compound 48], 200 nM.

As for `Cc1cc(C)n2ccc(C(=O)Nc3nc4c(C)cccc4s3)c2n1` [compound 43], the concentration at half-maximal activity (AC50) in experiment [3] (setting [4]) amounted to 200 nM.

Turning to `Cc1cc(C)n2ccc(C(=O)Nc3ccc(-n4ccnc4)cc3)c2n1` [compound 36], in experiment [3] (setting [4]), the half-maximal activity concentration (AC50) was 107000 nM. On to `Cc1cc(C)n2ccc(C(=O)Nc3ccc(-c4cn(CCOCCOCCC(=O)NCCC5CCCN5C)nn4)cc3)c2n1` (centres unmarked) [compound 68], for which the AC50 in experiment [3] (setting [4]) was 10000 nM. On to `Cc1cc(C)n2ccc(C(=O)Nc3ccc(-c4cn(CCCCCCCCC(=O)O)nn4)cc3)c2n1` [compound 59], for which the “Activator / Inhibitor” value in experiment [3] (Table 1) was “Activator”. In addition, in experiment [3] (setting [4]), the AC50 was 1780 nM. In the case of `Cc1cc(C)n2ccc(C(=O)Nc3nc4ccccc4s3)c2n1` [compound 31], in experiment [3] (setting [4]), the AC50 was 400 nM. On to `Cc1cc(C)n2ccc(C(=O)Nc3ncc4ccccc4n3)c2n1` [compound 45], for which, in experiment [3] (setting [4]), the AC50 came out at 35500 nM.
